Results as given in patent publication US20110178179A1, “1-AMINO-ALKYLCYCLOHEXANE DERIVATIVES FOR THE TREATMENT OF COGNITIVE IMPAIRMENT IN TINNITUS” (MERZ PHARMA GmbH & CO. KGaA, priority 2008, published 2011).

What was measured:
[1] = tested on: subjects with subjective tinnitus of at least moderate severity; assay: Double-blind placebo-controlled pilot trial of neramexane in tinnitus: THF-12 (TBF-12) questionnaire; assay type: in vivo, human; details: for TBF-12 functional-communicational score, Actual Mean ± SD / TBF-12 functional-communicational score, Neramexane - Placebo LSMean Diff. ± SE / TBF-12 functional-communicational score, Change Mean ± SD / TBF-12 functional-communicational score, Change LSMean: ITT-LOCF; for TBF-12 functional-communicational score, Change Mean ± SD / TBF-12 functional-communicational score, Change LSMean: baseline to Week 16; for TBF-12 functional-communicational score, Change LSMean: ANCOVA
Experimental: The objective of this pilot project was to conduct a clinical trial to assess the efficacy of neramexane as a treatment for tinnitus. The primary objective of this study was to compare the efficacy, tolerability and safety of neramexane mesylate at three different dosages (25, 50 or 75 mg/d) with placebo in subjects with subjective tinnitus of at least moderate severity.
(§1) In a double-blind, multicenter, randomized, placebo-controlled, parallel-group study, the efficacy of neramexane in subjects suffering from tinnitus of at least moderate severity was assessed. Approximately 100 patients, who fulfilled particular inclusion criteria and met none of particular exclusion criteria, were randomized to each of four double-blind treatment groups (neramexane mesylate 25, 50, 75 mg/d or placebo), resulting in approximately 400 patients in total.
(§2) The double-blind, 16-week treatment period consisted of a 4-week uptitration period and a 12-week fixed-dose treatment period at maintenance b.i.d. dosing. In case of poor tolerability, however, the investigator could consider a dose reduction by 25 mg/d (or placebo, respectively). After the treatment phase, there was a 4-week follow-up period with no active treatment and concomitant therapy restrictions. In total, this study involved seven study visits: screening, baseline, and at the end of weeks 4, 8, 12, 16, and 20.
Visit 1 (screening): After signing the consent form, the subject underwent a physical examination and clinical laboratory testing. Patient eligibility for the study was evaluated via a check of inclusion/exclusion criteria. An initial Tinnitus Interview was conducted. The subject also completed a Tinnitus-Beeinträchtigungs-Fragebogen (THF-12) (i.e., a 12-item German modified and validated version (Greimel K V et al., Tinnitus-Beeinträchtigungs-Fragebogen (THF-12). Manual. Frankfurt am Main: Swets & Zeitlinger B. V.; 2000) of the 25-item Tinnitus Handicap Inventory or THI (Newman C W, et al. Development of the Tinnitus Handicap Inven-tory. Arch Otolaryngol Head Neck Surg 1996; 122(2): 143-148; Newman C W, et al. Psychometric adequacy of the Tinnitus Handicap Inventory (THI) for evaluating treatment outcome. J Am Acad Audiol 1998; 9(2): 153-160.)), a Hospital Anxiety and Depression Scale—Depression Subscale (HADS-D) Questionnaire and a Hyperacusis (Geräuschüberempfindlichkeit-Fragenbogen (GÜF)) Questionnaire (if applicable).
(§3) Study medication was dispensed at Visit 2 (baseline, day 0). Each patient received one blister box containing 5 blister cards (including one reserve blister) of double-blind study medication (i.e., […]). Subjects were instructed to take 2 tablets twice daily (4 tablets/d), beginning the day after dispensing of the study medication, until they returned for their next study visit (Visit 3). For those subjects assigned to receive active medication, some placebo tablets were incorporated into the dosing regimen to ensure blinding during the uptitration period. The target fixed-maintenance dose of 25, 50, or 75 mg neramexane mesylate/d was administered starting with the fifth week of double-blind treatment and was continued throughout the study. At each of the subsequent visits (Visits 3, 4, and 5, corresponding to end of week 4, 8 and 12) patients received another blister box containing 5 blister cards for the 4 week intervals, with double-blind medication for the intervening treatment period until the next study visit.
Primary Outcome • The change in THF-12 total score from baseline (Visit 2) to the endpoint visit (Visit 6, i.e. Week 16) was the primary efficacy endpoint in this study. […]

[2] = tested on: subjects with subjective tinnitus of at least moderate severity; assay: Double-blind placebo-controlled pilot trial of neramexane in tinnitus: structured tinnitus interview, question 12/5 (concentration); assay type: in vivo, human; details: for Concentration: Affected (%) / Concentration: Affected n / Concentration: No effect (%) / Concentration: No effect n / Concentration: Prevented (%) / Concentration: Prevented n: ITT-LOCF
Experimental: as §1, §2, §3
Secondary Outcomes • THF-12 total score (values and absolute change from baseline) at all post-baseline visits except the endpoint visit. • Change in the THF-12 total score from Week 16 to Week 20 (values and absolute changes). • THF-12 factorial scores (values and absolute change from baseline, including the change from Week 16 to Week 20) at all post-baseline visits. • Hyperacusis questionnaire GÜF (“Geräuschüberempfindlichkeits-Fragebogen”), values and absolute change from baseline, including the change from Week 16 to Week 20, total and factorial scores at all post-baseline visits if hyperacusis was present. • Clinical global impression of change: item 27 of the tinnitus follow-up interview was summarized after dichotomization of the responses in any improvement (values 1, 2, 3) versus no improvement (values 4, 5, 6, 7) and in marked improvement (values 1, 2) versus no marked improvement (values 3, 4, 5, 6, 7). • Total score of HADS-D as well as the depression and anxiety subscale scores (values and absolute change from baseline, also the change from week 16 to week 20) at all post-baseline visits. • Values of tinnitus interview (initial and follow-up) at all post-baseline visits; absolute change from baseline and change from Week 16 to Week 20 for items 8, 9, 10, 19, 20, 21, 24, 25 and 26 of the follow-up interview.
All efficacy analyses were performed on the ITT population using the last-observation-carried-forward (LOCF) approach. For sensitivity purposes an analysis of the per-protocol set and of observed cases was performed additionally. All statistical tests used for testing the primary efficacy (confirmatory testing) and secondary efficacy criteria (exploratory), and all other statistical tests used for exploratory analyses were two-sided hypothesis tests performed at the 5% significance level. For all variables standard descriptive statistics were calculated.

[3] = target: α9/α10 nicotinic receptor (Rattus norvegicus, UniProt P43144+Q9JLB5); details: Plazas, et al., Eur J. Pharmacol., 2007; cited from earlier work
α9/α10 nicotinic receptor, sequence (P43144 26-479): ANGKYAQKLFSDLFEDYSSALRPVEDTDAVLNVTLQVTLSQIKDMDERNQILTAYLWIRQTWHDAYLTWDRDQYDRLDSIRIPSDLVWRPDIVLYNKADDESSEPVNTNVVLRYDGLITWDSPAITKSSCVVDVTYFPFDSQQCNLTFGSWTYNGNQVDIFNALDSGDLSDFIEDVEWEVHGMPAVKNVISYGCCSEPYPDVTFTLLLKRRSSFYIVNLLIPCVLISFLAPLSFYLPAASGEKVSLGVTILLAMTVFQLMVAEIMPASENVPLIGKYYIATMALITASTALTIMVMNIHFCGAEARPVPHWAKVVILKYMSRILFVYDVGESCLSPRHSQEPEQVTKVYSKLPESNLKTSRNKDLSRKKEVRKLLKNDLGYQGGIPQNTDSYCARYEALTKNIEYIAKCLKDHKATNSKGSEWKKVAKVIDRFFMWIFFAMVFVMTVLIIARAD
α9/α10 nicotinic receptor, sequence (Q9JLB5 25-447): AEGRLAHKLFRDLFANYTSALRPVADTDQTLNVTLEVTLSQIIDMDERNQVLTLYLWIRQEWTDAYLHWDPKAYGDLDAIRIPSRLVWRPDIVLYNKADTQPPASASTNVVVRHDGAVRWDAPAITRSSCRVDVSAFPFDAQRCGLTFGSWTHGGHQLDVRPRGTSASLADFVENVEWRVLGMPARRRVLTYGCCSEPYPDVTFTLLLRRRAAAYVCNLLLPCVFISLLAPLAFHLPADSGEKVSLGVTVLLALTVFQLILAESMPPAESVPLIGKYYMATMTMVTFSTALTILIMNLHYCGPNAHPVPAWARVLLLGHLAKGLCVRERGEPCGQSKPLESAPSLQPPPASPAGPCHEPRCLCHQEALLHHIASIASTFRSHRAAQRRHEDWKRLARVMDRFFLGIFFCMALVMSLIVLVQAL

[4] = final daily doses of 50 or 75 mg, 16 weeks, distinct from placebo or low-dose (25 mg)
[5] = Baseline, 25 mg/d group, N = 106
[6] = Baseline, 50 mg/d group, N = 106
[7] = Baseline, 75 mg/d group, N = 99
[8] = Week 16 or end of treatment, 25 mg/d, N = 101
[9] = Week 16 or end of treatment, 50 mg/d, N = 103
[10] = Week 16 or end of treatment, 75 mg/d, N = 93

**Q.** Which “improvement of tinnitus as measured by the THF-12” value ([1]; final daily doses of 50 or 75 mg, 16-week double-blind treatment, distinct from placebo or low-dose (25 mg)) does the source give for CC1(C)CC(C)(C)CC(C)(N)C1.CS(=O)(=O)O [neramexane mesylate] here?
**A.** Its value is “clear improvement of their tinnitus”.

**Q.** And the “improvement of cognition, item one (concentration) and item two (focused attention) of the functional-communicational subscore of the THF-12” value [1, 4]?
**A.** The value was “clear improvement of their cognition”.

**Q.** What about the “improvement of concentration, question 12/5 of the structured tinnitus interview” value [2, 4] of the same compound?
**A.** Its value is “clear improvement of their concentration”.

**Q.** Which results are given for CC1(C)CC(C)(C)CC(C)(N)C1 [Neramexane, 1-amino-1,3,3,5,5-pentamethylcyclohexane]?
**A.** TBF-12 functional-communicational score, Actual Mean ± SD ([1]; Baseline, 25 mg/d group, n=106): 5.0 ± 2.1; TBF-12 functional-communicational score, Actual Mean ± SD ([1]; Baseline, 50 mg/d group, n=106): 5.2 ± 1.9; TBF-12 functional-communicational score, Actual Mean ± SD ([1]; Baseline, 75 mg/d group, n=99): 5.1 ± 2.2; TBF-12 functional-communicational score, Neramexane - Placebo LSMean Diff. ± SE ([1]; Week 16, 25 mg/d vs placebo): 0.0 ± 0.2; TBF-12 functional-communicational score, Actual Mean ± SD ([1]; Week 16, 25 mg/d, n=106): 4.3 ± 2.5; TBF-12 functional-communicational score, Neramexane - Placebo LSMean Diff. ± SE ([1]; Week 16, 50 mg/d vs placebo): −0.5 ± 0.2; TBF-12 functional-communicational score, Actual Mean ± SD ([1]; Week 16, 50 mg/d, n=106): 3.9 ± 2.2; TBF-12 functional-communicational score, Neramexane - Placebo LSMean Diff. ± SE ([1]; Week 16, 75 mg/d vs placebo): −0.4 ± 0.2; TBF-12 functional-communicational score, Actual Mean ± SD ([1]; Week 16, 75 mg/d, n=99): 4.0 ± 2.5; TBF-12 functional-communicational score, Change Mean ± SD ([1]; 25 mg/d): −0.7 ± 1.5; TBF-12 functional-communicational score, Change LSMean ([1]; 25 mg/d): −0.7; TBF-12 functional-communicational score, Change Mean ± SD ([1]; 50 mg/d): −1.2 ± 2.0; TBF-12 functional-communicational score, Change LSMean ([1]; 50 mg/d): −1.2; TBF-12 functional-communicational score, Change Mean ± SD ([1]; 75 mg/d): −1.1 ± 1.8; TBF-12 functional-communicational score, Change LSMean ([1]; 75 mg/d): −1.0; effect on cognitive function in patients with tinnitus (conclusion of Example 1) ([1]; patients with tinnitus): capability to improve cognitive function; activity at α9/α10 nicotinic receptor [3]: α9/α10 nicotinic receptor antagonist; Concentration: Affected (%) [2, 5]: (82.1) %; Concentration: Affected n [2, 5]: 87; Concentration: No effect (%) [2, 5]: (12.3) %; Concentration: No effect n [2, 5]: 13; Concentration: Prevented (%) [2, 5]: (5.7) %; Concentration: Prevented n [2, 5]: 6; Concentration: Affected (%) [2, 6]: (84.0) %; Concentration: Affected n [2, 6]: 89; Concentration: No effect (%) [2, 6]: (9.4) %; Concentration: No effect n [2, 6]: 10; Concentration: Prevented (%) [2, 6]: (6.6) %; Concentration: Prevented n [2, 6]: 7; Concentration: Affected (%) [2, 7]: (73.7) %; Concentration: Affected n [2, 7]: 73; Concentration: No effect (%) [2, 7]: (19.2) %; Concentration: No effect n [2, 7]: 19; Concentration: Prevented (%) [2, 7]: (7.1) %; Concentration: Prevented n [2, 7]: 7; Concentration: Affected (%) [2, 8]: (81.2) %; Concentration: Affected n [2, 8]: 82; Concentration: No effect (%) [2, 8]: (17.8) %; Concentration: No effect n [2, 8]: 18; Concentration: Prevented (%) [2, 8]: (1.0) %; Concentration: Prevented n [2, 8]: 1; Concentration: Affected (%) [2, 9]: (73.8) %; Concentration: Affected n [2, 9]: 76; Concentration: No effect (%) [2, 9]: (24.3) %; Concentration: No effect n [2, 9]: 25; Concentration: Prevented (%) [2, 9]: (1.9) %; Concentration: Prevented n [2, 9]: 2; Concentration: Affected (%) [2, 10]: (73.1) %; Concentration: Affected n [2, 10]: 68; Concentration: No effect (%) [2, 10]: (23.7) %; Concentration: No effect n [2, 10]: 22; Concentration: Prevented (%) [2, 10]: (3.2) %; Concentration: Prevented n [2, 10]: 3
